Measured values as given in patent US8242274B2, “Triazolopyridine kinase inhibitors useful for the treatment of degenerative and inflammatory diseases” (Galapagos NV, priority 2008, dated 2012).

Experiments:
[1] = Microsomal stability, human; assay type: in vitro ADME; conditions: human liver microsomes, 3 μM compound, 37° C.
Description: (§1) A 10 mM stock solution of compound in DMSO was diluted 1000 fold in a 182 mM phosphate buffer pH 7.4 in a 96 deep well plate (Greiner, Cat no. 780285) and pre-incubated at 37° C.
(§2) 40 μL of deionised water was added to a well of a polypropylene Matrix 2D barcode labelled storage tube (Thermo Scientific) and pre-incubated at 37° C.
(§3) A Glucose-6-phosphate-dehydrogenase (G6PDH) working stock solution was prepared in 182 mM phosphate buffer pH7.4 and placed on ice before use. A co-factor containing MgCl2, glucose-6-phosphate and NADP+ was prepared in deionised water and placed on ice before use.
(§4) A final working solution containing liver microsomes (Xenotech) of a species of interest (human, mouse, rat, dog), previously described G6PDH and co-factors was prepared and this mix was incubated for no longer than 20 minutes at room temperature.
(§5) 30 μL of the pre-heated compound dilution was added to 40 μL of pre-heated water in the Matrix tubes and 30 μL of the microsomal mix was added. Final reaction concentrations were 3 μM compound, 1 mg microsomes, 0.4 U/mL GDPDH, 3.3 mM MgCl2, 3.3 mM glucose-6-phosphate and 1.3 mM NADP+.
(§6) To measure percentage remaining of compound at time zero MeOH or ACN was added (1:1) to the well before adding the microsomal mix. The plates were sealed with Matrix Sepra Seals™ (Matrix, Cat. No. 4464) and shaken for a few seconds ensure complete mixing of all components.
(§7) The samples which were not stopped are incubated at 37° C., 300 rpm and after 1 hour of incubation the reaction was stopped with MeOH or ACN (1:1).
(§8) After stopping the reaction the samples were mixed and placed on ice for 30 min to precipitate the proteins. The plates were then centrifuged 30 min at 1200 rcf at 4° C. and the supernatant was transferred to a 96 v-bottom PP plate (Greiner, 651201) for analysis on LCMS.
(§9) These plates were sealed with sealing mats (MA96RD-04S) of www.kinesis.co.uk and samples were measured at room temperature on LCMS (ZQ 1525 from Waters) under optimized conditions using Quanoptimize to determine the appropriate mass of the parent molecule.
(§10) The samples were analyzed on LCMS with a flow rate of 1 mL/min. Solvent A was 15 mM ammonia and solvent B was methanol or acetonitrile, depending on the stop solution used. The samples were run under positive ion spray on an XBridge C18 […] (2.1×30 mm) column, from Waters.
(§11) Peak area from the parent compound at time 0 was considered to be 100% remaining. The percentage remaining after 1 hour incubation was calculated from time 0 and was calculated as the percentage remaining. The solubility of the compound in the final test concentration in buffer is inspected by microscope and results are reported.
(§12) The data on microsomal stability are expressed as a percentage of the total amount of compound remaining after 60 minutes.

[2] = Microsomal stability, rat; assay type: in vitro ADME; conditions: rat liver microsomes, 3 μM compound, 37° C.
Description: as §1, §2, §3, §4, §5, §6, §7, §8, §9, §10, §11, §12

[3] = molecular target: T1, Recombinant human JAK1 catalytic domain (Homo sapiens, UniProt P23458); experiment: JAK1 inhibition assay; assay type: biochemical; conditions: semi-quantitative score
T1 construct: Recombinant human JAK1 catalytic domain (amino acids 850-1154; catalog number 08-144); purchased Carna Biosciences 08-144
T1 sequence (P23458 850-1154): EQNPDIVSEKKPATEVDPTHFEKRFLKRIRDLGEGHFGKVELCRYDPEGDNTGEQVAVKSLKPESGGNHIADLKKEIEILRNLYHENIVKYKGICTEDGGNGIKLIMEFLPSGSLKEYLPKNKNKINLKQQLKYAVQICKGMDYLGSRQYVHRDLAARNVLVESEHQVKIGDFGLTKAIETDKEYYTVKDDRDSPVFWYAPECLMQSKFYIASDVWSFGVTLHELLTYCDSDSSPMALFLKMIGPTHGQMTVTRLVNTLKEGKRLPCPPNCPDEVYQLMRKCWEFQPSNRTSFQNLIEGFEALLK
Description: Recombinant human JAK1 catalytic domain (amino acids 850-1154; catalog number 08-144) was purchased from Carna Biosciences. 10 ng of JAK1 was incubated with 12.5 μg polyGT substrate (Sigma catalog number P0275) in kinase reaction buffer (15 mM Tris-HCl pH 7.5, 1 mM DTT, 0.01% Tween-20, 10 mM MgCl2, 2 μM non-radioactive ATP, 0.25 μCi 33P-gamma-ATP (GE Healthcare, catalog number AH9968) final concentrations) with or without 5 μL containing test compound or vehicle (DMSO, 1% final concentration), in a total volume of 25 μL, in a polypropylene 96-well plate (Greiner, V-bottom). After 45 min at 30° C., reactions were stopped by adding of 25 μL/well of 150 mM phosphoric acid. All of the terminated kinase reaction was transferred to prewashed (75 mM phosphoric acid) 96 well filter plates (Perkin Elmer catalog number 6005177) using a cell harvester (Perkin Elmer). Plates were washed 6 times with 300 μL per well of a 75 mM phosphoric acid solution and the bottom of the plates was sealed. 40 μL/well of Microscint-20 was added, the top of the plates was sealed and readout was performed using the Topcount (Perkin Elmer). Kinase activity was calculated by subtracting counts per minute (cpm) obtained in the presence of a positive control inhibitor (10 μM staurosporine) from cpm obtained in the presence of vehicle. The ability of a test compound to inhibit this activity was determined as: Percentage inhibition=((cpm determined for sample with test compound present−cpm determined for sample with positive control inhibitor)divided by(cpm determined in the presence of vehicle−cpm determined for sample with positive control inhibitor))*100%.
Dose dilution series were prepared for the compounds enabling the testing of dose-response effects in the JAK1 assay and the calculation of the IC50 for each compound. Each compound was routinely tested at concentration of 20 μM followed by a 1/3 serial dilution, 8 points (20 μM-6.67 μM-2.22 μM-740 nM-247 nM-82 nM-27 nM-9 nM) in a final concentration of 1% DMSO.

SMILES	Microsomal stability Human (%), compound remaining after 60 minutes [1] [%]	Microsomal stability Rat (%), compound remaining after 60 minutes [2] [%]	IC50 [3] [nM]
O=C(Nc1nc2cccc(-c3ccc(NCc4ccccc4)cc3)n2n1)C1CC1 [Compound 72, N-(5-(4-(benzylamino)phenyl)-[1,2,4]triazolo[1,5-a]pyridin-2-yl)cyclopropanecarboxamide]	4.88	2.2	0.1 to 100
O=C(Nc1nc2cccc(-c3ccc(OCc4ccc(C(F)(F)F)nc4)cc3)n2n1)C1CC1 [Compound 78, N-(5-(4-((6-(trifluoromethyl)pyridin-3-yl)methoxy)phenyl)-[1,2,4]triazolo[1,5-a]pyridin-2-yl)cyclopropanecarboxamide]	78.21	93.85	0.1 to 100
O=C(Nc1nc2cccc(-c3ccc(OCc4ccccn4)cc3)n2n1)C1CC1 [Compound 37, N-(5-(4-(pyridin-2-ylmethoxy)phenyl)-[1,2,4]triazolo[1,5-a]pyridin-2-yl)cyclopropanecarboxamide]	70.98	79.47	0.1 to 100
O=C(Nc1nc2cccc(-c3ccc(OCc4cccnc4)cc3)n2n1)C1CC1 [Compound 36, N-(5-(4-(pyridin-3-ylmethoxy)phenyl)-[1,2,4]triazolo[1,5-a]pyridin-2-yl)cyclopropanecarboxamide]	11.65	72.41	0.1 to 100
N#Cc1ccc(COc2ccc(-c3cccc4nc(NC(=O)C5CC5)nn34)cc2)cn1 [Compound 176, N-(5-(4-((6-cyanopyridin-3-yl)methoxy)phenyl)-[1,2,4]triazolo[1,5-a]pyridin-2-yl)cyclopropanecarboxamide]	157.1	90.21	0.1 to 100

Other lines, results leading:

Microsomal stability Human (%), compound remaining after 60 minutes [1] [%]	Microsomal stability Rat (%), compound remaining after 60 minutes [2] [%]	IC50 [3] [nM]	SMILES
42.75	34.5	0.1 to 100	O=C(Nc1nc2cccc(-c3ccc(OCc4ccccc4)nc3)n2n1)C1CC1 [Compound 57, Cyclopropanecarboxylic acid [5-(6-benzyloxy-pyridin-3-yl)-[1,2,4]triazolo[1,5-a]pyridin-2-yl]-amide]
70	94	0.1 to 100	O=C(Nc1nc2cccc(-c3ccc(OCc4ccccc4)cc3)n2n1)C1CC1 [Compound 12, N-(5-(4-(benzyloxy)phenyl)-[1,2,4]triazolo[1,5-a]pyridin-2-yl)cyclopropanecarboxamide]
30.21	23.6	0.1 to 100	CC(=O)Nc1ccc(COc2ccc(-c3cccc4nc(NC(=O)C5CC5)nn34)cc2)cc1 [Compound 92, N-(5-(4-(4-acetamidobenzyloxy)phenyl)-[1,2,4]triazolo[1,5-a]pyridin-2-yl)cyclopropanecarboxamide]
